The supplement of paper PMC8612539
Values after ≈ are worked out from the molar mass of the structure shown.

Assays:
[1] = tested on: Enterococcus spp.; test: minimum inhibitory concentration (MIC)
Protocol: (§1)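 Broth microdilution MIC (Sensititre BOPO7F bovine plate, CLSI methods) of 19 antimicrobials against field isolates of P. multocida, M. haemolytica, H. somni (deep nasopharyngeal swabs) and E. coli, Enterococcus spp. (rectal swabs) from weaned dairy heifers. Incubation 16-24 h at 35 C. MIC is the lowest concentration preventing visible growth. Values with <= or > lie at the tested range limits. Trimethoprim-sulfamethoxazole is given as the trimethoprim component of a 1:19 mixture.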

[2] = tested on: Mannheimia haemolytica; test: minimum inhibitory concentration (MIC)
Protocol: as §1

CC1(C)S[C@@H]2[C@H](NC(=O)[C@H](N)c3ccccc3)C(=O)N2[C@H]1C(=O)O [Ampicillin]
minimum inhibitory concentration [mg/L]
Conditions | [1] | [2]
isolate (source animal id): 2 | ≤ 0.25 | –
isolate (source animal id): 8 | – | ≤ 0.25
isolate (source animal id): 13 | – | ≤ 0.25
isolate (source animal id): 18 | – | ≤ 0.25
isolate (source animal id): 21 | – | ≤ 0.25
isolate (source animal id): 25 | – | ≤ 0.25
isolate (source animal id): 27 | – | ≤ 0.25
isolate (source animal id): 28 | – | > 16
isolate (source animal id): 30 | – | ≤ 0.25
isolate (source animal id): 31 | – | > 16
isolate (source animal id): 32 | – | ≤ 0.25
isolate (source animal id): 34 | – | ≤ 0.25
isolate (source animal id): 35 | 1 (≈ 2.86 µM) | –
isolate (source animal id): 36 | – | ≤ 0.25
isolate (source animal id): 37 | – | ≤ 0.25
isolate (source animal id): 40 | – | ≤ 0.25
isolate (source animal id): 41 | – | ≤ 0.25
isolate (source animal id): 42 | 1 (≈ 2.86 µM) | –
isolate (source animal id): 43 | – | ≤ 0.25
isolate (source animal id): 44 | 1 (≈ 2.86 µM) | –
isolate (source animal id): 46 | – | ≤ 0.25
isolate (source animal id): 49 | – | ≤ 0.25
isolate (source animal id): 50 | – | > 16
isolate (source animal id): 51 | – | ≤ 0.25
isolate (source animal id): 52 | – | ≤ 0.25
isolate (source animal id): 53 | – | ≤ 0.25
isolate (source animal id): 55 | – | ≤ 0.25
isolate (source animal id): 56 | – | ≤ 0.25
isolate (source animal id): 57 | – | ≤ 0.25
isolate (source animal id): 79 | 1 (≈ 2.86 µM) | –
isolate (source animal id): 88 | ≤ 0.25 | –
isolate (source animal id): 91 | ≤ 0.25 | –
isolate (source animal id): 92 | 0.5 (≈ 1.43 µM) | –
isolate (source animal id): 100 | – | ≤ 0.25
isolate (source animal id): 103 | – | ≤ 0.25
isolate (source animal id): 107 | – | ≤ 0.25
isolate (source animal id): 108 | – | ≤ 0.25
isolate (source animal id): 111 | ≤ 0.25 | –
isolate (source animal id): 112 | – | ≤ 0.25
isolate (source animal id): 113 | – | ≤ 0.25
isolate (source animal id): 121 | – | > 16
isolate (source animal id): 122 | 1 (≈ 2.86 µM) | ≤ 0.25
isolate (source animal id): 123 | 1 (≈ 2.86 µM) | 0.5 (≈ 1.43 µM)
isolate (source animal id): 126 | – | > 16
isolate (source animal id): 133 | 0.5 (≈ 1.43 µM) | ≤ 0.25
isolate (source animal id): 135 | – | ≤ 0.25
isolate (source animal id): 138 | – | > 16
isolate (source animal id): 141 | – | ≤ 0.25
isolate (source animal id): 142 | – | ≤ 0.25
isolate (source animal id): 145 | – | ≤ 0.25
isolate (source animal id): 149 | – | ≤ 0.25
isolate (source animal id): 151 | – | ≤ 0.25
isolate (source animal id): 152 | – | ≤ 0.25
isolate (source animal id): 154 | – | ≤ 0.25
isolate (source animal id): 158 | 1 (≈ 2.86 µM) | –
isolate (source animal id): 159 | – | 16 (≈ 45.8 µM)
isolate (source animal id): 162 | – | 8 (≈ 22.9 µM)
isolate (source animal id): 168 | 1 (≈ 2.86 µM) | –
isolate (source animal id): 169 | 1 (≈ 2.86 µM) | –
isolate (source animal id): 170 | – | > 16
isolate (source animal id): 171 | 0.5 (≈ 1.43 µM) | ≤ 0.25
isolate (source animal id): 172 | – | > 16
isolate (source animal id): 173 | – | > 16
isolate (source animal id): 175 | 1 (≈ 2.86 µM) | –
isolate (source animal id): 177 | 1 (≈ 2.86 µM) | –
isolate (source animal id): 179 | – | > 16
isolate (source animal id): 180 | – | > 16
isolate (source animal id): 181 | 1 (≈ 2.86 µM) | –
isolate (source animal id): 182 | 2 (≈ 5.72 µM) | –
isolate (source animal id): 183 | 1 (≈ 2.86 µM) | > 16
isolate (source animal id): 186 | – | > 16
isolate (source animal id): 187 | 2 (≈ 5.72 µM) | > 16
isolate (source animal id): 188 | – | > 16
isolate (source animal id): 190 | 2 (≈ 5.72 µM) | ≤ 0.25
isolate (source animal id): 191 | – | > 16
isolate (source animal id): 192 | – | ≤ 0.25
isolate (source animal id): 194 | 0.5 (≈ 1.43 µM) | –
isolate (source animal id): 195 | 1 (≈ 2.86 µM) | –
isolate (source animal id): 197 | 0.5 (≈ 1.43 µM) | –
isolate (source animal id): 201 | – | > 16
isolate (source animal id): 202 | – | > 16
isolate (source animal id): 209 | – | > 16
isolate (source animal id): 211 | 1 (≈ 2.86 µM) | > 16
isolate (source animal id): 214 | 0.5 (≈ 1.43 µM) | –
isolate (source animal id): 220 | – | > 16
isolate (source animal id): 221 | – | 16 (≈ 45.8 µM)
isolate (source animal id): 222 | 0.5 (≈ 1.43 µM) | –
isolate (source animal id): 223 | 0.5 (≈ 1.43 µM) | > 16
isolate (source animal id): 228 | 1 (≈ 2.86 µM) | –
isolate (source animal id): 230 | 2 (≈ 5.72 µM) | –
isolate (source animal id): 233 | – | > 16
isolate (source animal id): 235 | 1 (≈ 2.86 µM) | –
isolate (source animal id): 236 | 0.5 (≈ 1.43 µM) | –
isolate (source animal id): 237 | – | ≤ 0.25
isolate (source animal id): 239 | 0.5 (≈ 1.43 µM) | –
isolate (source animal id): 241 | 2 (≈ 5.72 µM) | > 16
isolate (source animal id): 244 | 0.5 (≈ 1.43 µM) | –
isolate (source animal id): 246 | 1 (≈ 2.86 µM) | –
isolate (source animal id): 247 | 2 (≈ 5.72 µM) | –
isolate (source animal id): 250 | 0.5 (≈ 1.43 µM) | –
isolate (source animal id): 252 | 1 (≈ 2.86 µM) | ≤ 0.25
isolate (source animal id): 253 | – | ≤ 0.25
isolate (source animal id): 259 | – | 16 (≈ 45.8 µM)
isolate (source animal id): 260 | – | ≤ 0.25
isolate (source animal id): 262 | – | > 16
isolate (source animal id): 268 | ≤ 0.25 | –
isolate (source animal id): 282 | 1 (≈ 2.86 µM) | > 16
isolate (source animal id): 285 | 1 (≈ 2.86 µM) | –
isolate (source animal id): 287 | – | ≤ 0.25
isolate (source animal id): 288 | – | ≤ 0.25
isolate (source animal id): 289 | ≤ 0.25 | –
isolate (source animal id): 290 | ≤ 0.25 | –
isolate (source animal id): 291 | – | ≤ 0.25
isolate (source animal id): 293 | – | ≤ 0.25
isolate (source animal id): 296 | ≤ 0.25 | –
isolate (source animal id): 298 | ≤ 0.25 | ≤ 0.25
isolate (source animal id): 299 | – | ≤ 0.25
isolate (source animal id): 300 | – | ≤ 0.25
isolate (source animal id): 301 | ≤ 0.25 | –
isolate (source animal id): 302 | – | ≤ 0.25
isolate (source animal id): 304 | – | ≤ 0.25
isolate (source animal id): 306 | – | ≤ 0.25
isolate (source animal id): 308 | – | ≤ 0.25
isolate (source animal id): 309 | – | ≤ 0.25
isolate (source animal id): 310 | 1 (≈ 2.86 µM) | –
isolate (source animal id): 313 | – | ≤ 0.25
isolate (source animal id): 318 | – | ≤ 0.25
isolate (source animal id): 320 | ≤ 0.25 | ≤ 0.25
isolate (source animal id): 321 | – | ≤ 0.25
isolate (source animal id): 323 | – | ≤ 0.25
isolate (source animal id): 324 | – | ≤ 0.25
isolate (source animal id): 326 | – | ≤ 0.25
isolate (source animal id): 328 | – | ≤ 0.25
isolate (source animal id): 329 | – | ≤ 0.25
isolate (source animal id): 331 | ≤ 0.25 | –
isolate (source animal id): 333 | ≤ 0.25 | ≤ 0.25
isolate (source animal id): 335 | – | ≤ 0.25
isolate (source animal id): 338 | – | ≤ 0.25
isolate (source animal id): 341 | 0.5 (≈ 1.43 µM) | –
